Source: article PMC4710668, “Bioactivation of food genotoxicants 5-hydroxymethylfurfural and furfuryl alcohol by sulfotransferases from human, mouse and rat: a comparative study” (Archives of Toxicology, 2014)

Tested on: mSult5a1
Experiment: HMF sulfoconjugation assay
Format: biochemical, mouse
Procedure: Cytosolic fractions containing individual SULT forms were prepared from transgenic S. typhimurium TA1538. Table S1 in the Supplementary Material provides a summary of the thirty SULTs used in the current study together with references describing the cloning of the respective S. typhimurium TA1538 strains. The expressed SULT forms are denoted with the prefixes h, m and r for human, mouse and rat enzymes, respectively. Bacteria were grown in Luria Broth medium containing ampicillin (100 µg/ml) by stirring for 8 h at 200 revolutions/min at 37 °C. The bacterial suspensions were centrifuged at 5,000 g for 10 min. The sediments were washed twice with 25 ml of 10 mM potassium phosphate buffer (pH 7.4)/50 mM potassium chloride (KCP buffer) and centrifuged again. The pellets were taken up in 800 µl KCP buffer and sonicated thrice for 15 s with 30 s pauses in between. The soluble fraction was attained by centrifuging for 1 h at 100,000 g. The supernatants (in the following termed cytosolic preparations) were frozen at −80 °C. The protein concentrations were determined according to a bicinchoninic acid (BCA) assay protocol. The SULT concentrations in the cytosolic preparations were estimated after electrophoretic separation and immunodetection using inclusion bodies of different SULT forms as standards (Teubner et al. [2007]). The preparation of SULT inclusion bodies and the immunodetection of SULTs is described in the Supplementary Material, which also contains a representative immunoblot of different amounts of rSult1a1standard and a cytosolic preparation of S. typhimurium expressing rSult1a1 (Fig. S1).
The reactions were conducted in mixtures of 100 µl containing 25–200 µg protein, 50 mM potassium phosphate buffer (pH 7.4), 5 mM MgCl2, 50 µM PAPS and different concentrations of HMF at 37 °C. Preliminary experiments ensured that measurements were recorded under ‘linear’ conditions, i.e., doubling of protein concentration or incubation time was doubling the amount of sulfate ester formed. The reactions were stopped after 30 min by adding 300 µl ice-cold 2-propanol, mixed and centrifuged at 15,000 g for 10 min.
SMF concentrations of the clear supernatants were analyzed by UPLC-MS/MS. The protocol was adapted from the quantification of SMF in plasma samples of HMF-treated mice (Monien et al. [2009]). In short, the supernatants were analyzed using a UPLC system (Waters) connected to a Quattro Premier XE tandem quadrupole mass spectrometer (Waters) using the negative electrospray ionization mode. Samples of 4 µl were injected into a HSS T3 column (1.8 µm, 2.1 × 100 mm; Waters) and eluted with an isocratic flow of 0.35 ml/min 10 mM ammonium acetate/methanol (95:5). The fragmentation reactions of SMF yielding two principal ions, the sulfate ion radical (m/z = 204.9 → 96.0) and the protonated sulfonate ion (m/z = 204.9 → 81.0) were monitored. The tune parameters were as follows: temperature of the electrospray source 120 °C; desolvation temperature 475 °C; desolvation gas nitrogen (800 l/h); cone gas nitrogen (100 l/h); collision gas argon (indicated cell pressure ~5 × 10^−3 mbar). For the fragmentation of SMF, collision energies were 20 and 23 eV for the transitions m/z = 204.9 → 81.0 and m/z = 204.9 → 96.0, respectively. The dwell time was set to 100 ms, and capillary voltage was set to 0.35 kV. The cone and RF1 lens voltages were 32 and 0.2 V, respectively. SMF was quantified using an external calibration line that was linear in the concentration range of 1.0 nM (4 fmol/injection) to 2,500 (10 pmol/injection) SMF (r ^2 ≥ 0.99). Data acquisition and handling were performed with MassLynx 4.1 software (Waters). The limit of detection (LOD) for this technique of 2.5 nM SMF has been reported (Monien et al. [2009]). In the current study, this corresponds to 10 fmol SMF per injection or a reaction rate of 0.5 pmol SMF/mg/min.

Measured: Rate of sulfoconjugation

O=Cc1ccc(CO)o1 [HMF, 5-Hydroxymethylfurfural]
<0.5 pmol/mg/min: 0.1 mM HMF | 1 mM HMF | 10 mM HMF | 100 mM HMF
